Values after ≈ are worked out from the molar mass of the structure shown. Residues, ends and D or L forms follow the SMILES beside them.
Assays:
[1] = test system: HEK293 cell line; type: cell-based; conditions: 48 h
How it was run: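 HEK293 cells seeded at 2 × 10³/well, incubated 48 h at 37 °C with serially diluted compounds (stock 2 mg/mL) in DMEM with 10% FBS. AlamarBlue added at 10% final for 3–5 h; fluorescence ex 560/em 590 nm, normalized to untreated cells.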

[2] = test system: E. coli W3110; conditions: for MIC at pH 5.0, E. coli W3110: W3110, pH 5; for MIC at pH 7.4, E. coli W3110: W3110, pH 7.4; for MIC at pH 8.0, E. coli W3110: W3110, pH 8
[3] = test system: A. baumannii ATCC 19606; conditions: for MIC at pH 5.0, A. baumannii ATCC 19606: ATCC 19606, pH 5; for MIC at pH 7.4, A. baumannii ATCC 19606: ATCC 19606, pH 7.4; for MIC at pH 8.0, A. baumannii ATCC 19606: ATCC 19606, pH 8
[4] = test system: P. aeruginosa PAO1; conditions: for MIC at pH 5.0, P. aeruginosa PAO1: PAO1, pH 5; for MIC at pH 7.4, P. aeruginosa PAO1: PAO1, pH 7.4; for MIC at pH 8.0, P. aeruginosa PAO1: PAO1, pH 8
[5] = test system: K. pneumoniae NCTC 418; conditions: for MIC at pH 5.0, K. pneumoniae NCTC 418: NCTC 418, pH 5; for MIC at pH 7.4, K. pneumoniae NCTC 418: NCTC 418, pH 7.4; for MIC at pH 8.0, K. pneumoniae NCTC 418: NCTC 418, pH 8
[6] = test system: S aureus COL (methicillin-resistant Staphylococcus aureus); conditions: for MIC at pH 5.0, S aureus COL: COL (methicillin-resistant, pH 5); for MIC at pH 7.4, S aureus COL: COL (methicillin-resistant, pH 7.4); for MIC at pH 8.0, S aureus COL: COL (methicillin-resistant, pH 8)
[7] = test system: S. maltophilia; conditions: pH 7.4
[8] = test system: P. aeruginosa PA14; conditions: PA14, pH 7.4
[9] = test system: P. aeruginosa ZEM-1A; conditions: ZEM-1A, pH 7.4
[10] = test system: E. cloacae; conditions: pH 7.4
[11] = test system: K. pneumoniae OXA-48; conditions: OXA-48, pH 7.4
[12] = test system: P. aeruginosa ZEM9A; conditions: ZEM9A, pH 7.4
[13] = test system: B. cenocepacia; conditions: pH 7.4
[14] = test system: S. aureus Newman; conditions: Newman, pH 7.4
[15] = test system: P. aeruginosa PAO1; experiment: PI cell permeabilization assay (flow cytometry); type: cell-based, Pseudomonas aeruginosa; conditions: PAO1 (OD600 = 1) incubated 20 min at 37°C, PI 5 µg/mL
Experimental: page 31: 12. Cell Membrane Permeability Assay Propidium iodide (PI) was used as the fluorescent dye to evaluate integrity of bacterial membranes. A single colony of Pseudomonas aeruginosa PAO1 was grown overnight with shaking (150 rpm) in LB-broth (5 mL) at 37 °C. 100 μL of the overnight culture was regrown in 10 mL LB-broth to the exponential phase OD600 1 (10^9 CFU/mL). Bacteria was washed with MH and then re-suspended to a working concentration of OD600 = 1. AMPDs and polymyxin B (stock solution 1 mg/mL) were added at different final concentrations ( 16, 32 and 64 μg/mL). Samples were incubated with shaking (150 rpm) at 37°C for 20 minutes before samples were centrifuged at 14 000 rpm for 3 min. Bacteria sample was washed twice with PBS and stained with PI 5 µg/mL in PBS with shaking (150 rpm) at 37°C for 20 minutes. Bacteria sample was washed 5 times with PBS and the fluorescence intensity of bacteria suspensions was observed and recorded on a ImageStream ® X Mark II Imaging Flow Cytometer with a 488 nm laser , bacteria cells wi th fluorescent intensity higher than 2 × 104 is defined as PI positive cells. Percentage of PI positive cells was calculated by IDEA S workstation . S30

[16] = test system: P. aeruginosa PAO1; experiment: DiSC3(5) inner membrane depolarization assay; type: cell-based, Pseudomonas aeruginosa; conditions: PAO1 in HEPES buffer pH 7.4, 2 μM DiSC3(5), up to 64 μg/mL, read within 5 min
Experimental: page 29: 11. DiSC3(5) Membrane Depolarization Assay A single colony of Pseudomonas aeruginosa PAO1 was grown overnight with shaking (150 rpm) in LB-broth (5 mL) at 37 °C. 100 μL of the overnight culture was regrown in 10 mL LB- broth with shaking (200 rpm) to the exponential phase OD 600 = 1 (10^9 CFU/mL). Bacteria were washed once with HEPES buffer (5 mM HEPES, 5 mM glucose, pH 7.4) and diluted to OD 600 = 0.4. Stock solution of 10 mM of DiSC3(5) was prepared in DMSO. Stock solutions of 1 mg/mL of the compounds were prepared in sterilized milli-Q water and diluted to the beginning concentration of 128 μg/mL in 200 μL HEPES buffer containing […] the fluorescent probe DiSC3(5) 4 μM. The diluted samples were added to the first well of 96-well plates (black wells, flat bottom, BRAND® GmbH Wertheim, Germany) and diluted serially by 1/2. 100 μL of the bacterial suspension in HEPES buffer (without DiSC3(5)) were added to each well. In this case, the final OD of bacteria was 0.2, the final concentration of peptide in the first column is 64 μg/mL and DiSC3(5) 2 μM. The control wells are buffer containing DiSC3(5) and bacterial suspension containing DiSC3(5) in HEPES buffer. The plate was measured with a Tecan instrument Infinite M1000 within 5 min. The plate was enabled to shake for 5 sec before measurement. […]

Compound	IC50 HEK293 [1] [µg/mL]	MIC at pH 5.0, E. coli W3110 [2] [μg/mL]	MIC at pH 7.4, E. coli W3110 [2] [μg/mL]	MIC at pH 8.0, E. coli W3110 [2]	MIC at pH 5.0, A. baumannii ATCC 19606 [3] [μg/mL]	MIC at pH 7.4, A. baumannii ATCC 19606 [3] [μg/mL]	MIC at pH 8.0, A. baumannii ATCC 19606 [3]	MIC at pH 5.0, P. aeruginosa PAO1 [4] [μg/mL]	MIC at pH 7.4, P. aeruginosa PAO1 [4] [μg/mL]	MIC at pH 8.0, P. aeruginosa PAO1 [4]	MIC at pH 5.0, K. pneumoniae NCTC 418 [5] [μg/mL]	MIC at pH 7.4, K. pneumoniae NCTC 418 [5] [μg/mL]	MIC at pH 8.0, K. pneumoniae NCTC 418 [5] [μg/mL]	MIC at pH 5.0, S aureus COL [6] [μg/mL]	MIC at pH 7.4, S aureus COL [6] [μg/mL]	MIC at pH 8.0, S aureus COL [6] [μg/mL]	MIC, S. maltophilia [7] [µg/mL]	MIC, P. aeruginosa PA14 [8] [µg/mL]	MIC, P. aeruginosa ZEM-1A [9] [µg/mL]	MIC, E. cloacae [10] [µg/mL]	further results
CC(C)C[C@H](NC(=O)[C@H](CCCCN)NC(=O)[C@H](CCCCNC(=O)[C@H](CC(C)C)NC(=O)[C@H](CCCCN)NC(=O)[C@H](CCCCNC(=O)[C@H](CC(C)C)NC(=O)[C@H](CCCCN)NC(=O)[C@H](CCCCNC(=O)[C@H](CC(C)C)NC(=O)[C@@H](N)CCCCN)NC(=O)[C@H](CC(C)C)NC(=O)[C@@H](N)CCCCN)NC(=O)[C@H](CC(C)C)NC(=O)[C@H](CCCCN)NC(=O)[C@H](CCCCNC(=O)[C@H](CC(C)C)NC(=O)[C@@H](N)CCCCN)NC(=O)[C@H](CC(C)C)NC(=O)[C@@H](N)CCCCN)NC(=O)[C@H](CC(C)C)NC(=O)[C@H](CCCCN)NC(=O)[C@H](CCCCNC(=O)[C@H](CC(C)C)NC(=O)[C@H](CCCCN)NC(=O)[C@H](CCCCNC(=O)[C@H](CC(C)C)NC(=O)[C@@H](N)CCCCN)NC(=O)[C@H](CC(C)C)NC(=O)[C@@H](N)CCCCN)NC(=O)[C@H](CC(C)C)NC(=O)[C@H](CCCCN)NC(=O)[C@H](CCCCNC(=O)[C@H](CC(C)C)NC(=O)[C@@H](N)CCCCN)NC(=O)[C@H](CC(C)C)NC(=O)[C@@H](N)CCCCN)C(N)=O [L-G3KL, reference compound] (HELM PEPTIDE1{K.L.K.K.L.K.K.L.K.K.L.[am]}|PEPTIDE2{K.L}|PEPTIDE3{K.L.K.K.L.K.K.L}|PEPTIDE4{K.L}|PEPTIDE5{K.L.K.K.L}|PEPTIDE6{K.L}|PEPTIDE7{K.L.K.K.L}|PEPTIDE8{K.L}$PEPTIDE1,PEPTIDE2,3:R3-2:R2|PEPTIDE3,PEPTIDE4,3:R3-2:R2|PEPTIDE5,PEPTIDE6,3:R3-2:R2|PEPTIDE7,PEPTIDE8,3:R3-2:R2|PEPTIDE1,PEPTIDE7,6:R3-5:R2|PEPTIDE1,PEPTIDE3,9:R3-8:R2|PEPTIDE3,PEPTIDE5,6:R3-5:R2$$$V2.0)	460 ± 17 (≈ 101 µM)	32	8	1–2 μg/mL	8	8	1 μg/mL	16	4	1 μg/mL	> 64	> 64	4	> 64	> 64	2	8 (≈ 1.76 µM)	2 to 4	4 (≈ 0.882 µM)	8 (≈ 1.76 µM)	MIC, K. pneumoniae OXA-48 [11]: >64 µg/mL; MIC, P. aeruginosa ZEM9A [12]: 16 µg/mL (≈ 3.53 µM); MIC, B. cenocepacia [13]: >64 µg/mL; MIC, S. aureus Newman [14]: >64 µg/mL
CC(C)C[C@H](NC(=O)[C@H](CCCCN)NC(=O)[C@H](CCCCN)NC(=O)[C@H](CCCCNC(=O)[C@H](CC(C)C)NC(=O)[C@H](CC(C)C)NC(=O)[C@H](CCCCN)NC(=O)[C@H](CCCCNC(=O)[C@H](CC(C)C)NC(=O)[C@H](CCCCN)NC(=O)[C@H](CCCCNC(=O)[C@H](CC(C)C)NC(=O)[C@@H](N)CCCCN)NC(=O)[C@H](CC(C)C)NC(=O)[C@@H](N)CCCCN)NC(=O)[C@H](CC(C)C)NC(=O)[C@H](CCCCN)NC(=O)[C@H](CCCCNC(=O)[C@H](CC(C)C)NC(=O)[C@@H](N)CCCCN)NC(=O)[C@H](CC(C)C)NC(=O)[C@@H](N)CCCCN)NC(=O)[C@H](CC(C)C)NC(=O)[C@H](CC(C)C)NC(=O)[C@H](CCCCN)NC(=O)[C@H](CCCCNC(=O)[C@H](CC(C)C)NC(=O)[C@H](CCCCN)NC(=O)[C@H](CCCCNC(=O)[C@H](CC(C)C)NC(=O)[C@@H](N)CCCCN)NC(=O)[C@H](CC(C)C)NC(=O)[C@@H](N)CCCCN)NC(=O)[C@H](CC(C)C)NC(=O)[C@H](CCCCN)NC(=O)[C@H](CCCCNC(=O)[C@H](CC(C)C)NC(=O)[C@@H](N)CCCCN)NC(=O)[C@H](CC(C)C)NC(=O)[C@@H](N)CCCCN)C(N)=O [L-T7, reference compound] (HELM PEPTIDE1{K.L.K.K.L.K.K.L.L.K.K.K.L.[am]}|PEPTIDE2{K.L}|PEPTIDE3{K.L.K.K.L.K.K.L.L}|PEPTIDE4{K.L}|PEPTIDE5{K.L.K.K.L}|PEPTIDE6{K.L}|PEPTIDE7{K.L.K.K.L}|PEPTIDE8{K.L}$PEPTIDE1,PEPTIDE2,3:R3-2:R2|PEPTIDE3,PEPTIDE4,3:R3-2:R2|PEPTIDE5,PEPTIDE6,3:R3-2:R2|PEPTIDE7,PEPTIDE8,3:R3-2:R2|PEPTIDE1,PEPTIDE7,6:R3-5:R2|PEPTIDE1,PEPTIDE3,10:R3-9:R2|PEPTIDE3,PEPTIDE5,6:R3-5:R2$$$V2.0)	70 ± 6 (≈ 14.3 µM)	16	4	2 μg/mL	16	8	2–4 μg/mL	16	8	2–4 μg/mL	> 64	32	8	> 64	> 64	4	4 (≈ 0.818 µM)	8 (≈ 1.64 µM)	4 (≈ 0.818 µM)	8 (≈ 1.64 µM)	MIC, K. pneumoniae OXA-48 [11]: 16 µg/mL (≈ 3.27 µM); MIC, P. aeruginosa ZEM9A [12]: 8 µg/mL (≈ 1.64 µM); MIC, B. cenocepacia [13]: >64 µg/mL; MIC, S. aureus Newman [14]: >64 µg/mL
PMB nonapeptide [PMBN]	–	–	–	–	–	–	–	–	–	–	–	–	–	–	–	–	–	–	–	–	Cell permeabilization (PI), percentage of PI-positive cells ([15]; 16 μg/mL): 40%; Cell permeabilization (PI), percentage of PI-positive cells ([15]; 32 μg/mL): 38%; Cell permeabilization (PI), percentage of PI-positive cells ([15]; 64 μg/mL): 37%; Inner membrane depolarization (DiSC3(5) fluorescence), words [16]: no effect on inner membranes
